Experiments:
[1] = system: moderate to severe post-operative pain; settings: cited from earlier work
[2] = in vivo; cited from earlier work
[3] = human subjects, cited from earlier work
[4] = animal models; cited from earlier work
rabbit skin = settings: in vivo

SMILES: O=C(c1ccccc1)c1ccc2n1CCC2C(=O)O (racemic) [Toradol®, Ketorolac tromethamine]
- adverse effects ([1]; administered orally for extended periods of time): gastric irritation and ulcers have been observed
- efficacy compared with morphine, meperidine, or pentazocine ([1]; single-dose, moderate to severe post-operative pain): more efficacious

SMILES: O=C(c1ccccc1)c1ccc2n1CCC2C(=O)O (racemic) [racemic ketorolac, ketorolac]
- biological half-life [2]: 4-6 hours

SMILES: O=C(c1ccccc1)c1ccc2n1CC[C@@H]2C(=O)O [(s)-ketorolac]
- plasma concentrations compared with (r)-ketorolac ([3]; after oral administration of racemic ketorolac, all sample times): lower
- clearance compared with (r)-ketorolac ([3]; single oral solution dose): greater
- plasma half-life compared with (r)-ketorolac ([3]; single oral solution dose): shorter
- potency compared with the (r)-enantiomer [4]: approximately twice as potent
- skin irritation (erythema and edema), in words (rabbit skin): non-irritant

SMILES: CCCCCCCCCCCCOS(=O)(=O)[O-].[Na+] [SDS, 5%, sodium dodecyl sulfate]
- Overall Edema Score (rabbit skin; New Zealand): 2.0
- Overall Erythema Score (rabbit skin; New Zealand): 1.0

— patent US20180360769A1, “SYSTEMS AND METHODS FOR TRANSDERMAL DRUG DELIVERY” (Elliptical Therapeutics, LLC, priority 2015, published 2018)
